Test results taken from patent US10765114B2, “4-amino-6-(pyridyl and 2-substitutedphenyl)-picolinates and 6-amino-2-(pyridyl and 2-substitutedphenyl)-pyrimidine-4-carboxylates and their use as herbicides” (Dow AgroSciences LLC, priority 2013, dated 2020).
Where two headings read alike, the source gives them in different places.

Columns and labels:
[1] = test system: Key Broadleaf Weed and Crop Species; test: Post-Emergent Test II (Table 5); type: in vivo; conditions: post-emergence, 336 h; for pest or weed control at 70 g/ha: application rate 70 (kg ai/ha; footnote: g ai/ha); for pest or weed control at 140 g/ha: application rate 140 (kg ai/ha; footnote: g ai/ha)
Outline: (§1)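 Post-emergence greenhouse spray, 1st-2nd true leaf stage; track sprayer, 187 L/ha; acetone/DMSO stock diluted in aqueous acetone/IPA/DMSO with Atplus 411F and Triton X-155; rates 1× to 1/16×; subirrigated; visual injury 0 (none) to 100% (complete kill) at 14 days.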

[2] = test system: Key Grass and Sedge Weeds as well as Grass Crops; test: Post-Emergent Test II (Table 6); type: in vivo; conditions: post-emergence, 336 h, 14 days after application; for pest or weed control at 70 g/ha: 70 g ai/ha; for pest or weed control at 140 g/ha: 140 g ai/ha
Outline: as §1

[3] = Abutilon theophrasti, ABUTH: velvetleaf (Abutilon theophrasti), read-out: Visual Growth Reduction (%) 14 Days After Application ABUTH
[4] = Brassica napus, BRSSS: oilseed rape, canola (Brassica napus), read-out: Visual Growth Reduction (%) 14 Days After Application BRSSS
[5] = Chenopodium album, CHEAL: lambsquarters (Chenopodium album), read-out: Visual Growth Reduction (%) 14 Days After Application CHEAL
[6] = Euphorbia heterophylla, EPHHL: wild poinsettia (Euphorbia heterophylla), read-out: Visual Growth Reduction (%) 14 Days After Application EPHHL
[7] = Helianthus annuus, HELAN: sunflower (Helianthus annuus), read-out: Visual Growth Reduction (%) 14 Days After Application HELAN
[8] = Viola tricolor, VIOTR: wild pansy (Viola tricolor), read-out: Visual Growth Reduction (%) 14 Days After Application VIOTR
[9] = CYPSS, read-out: Visual Growth Reduction (%) 14 Days After Application CYPSS
[10] = DIGSA: crabgrass (Digitaria sanguinalis), read-out: Visual Growth Reduction (%) 14 Days After Application DIGSA
[11] = ECHSS, read-out: Visual Growth Reduction (%) 14 Days After Application ECHSS
[12] = ORYSS (crop), read-out: Visual Growth Reduction (%) 14 Days After Application ORYSS
[13] = SETFA: giant foxtail (Setaria faberi), read-out: Visual Growth Reduction (%) 14 Days After Application SETFA
[14] = SORVU: grain sorghum (Sorghum vulgare), read-out: Visual Growth Reduction (%) 14 Days After Application SORVU
[15] = TRZSS (crop), read-out: Visual Growth Reduction (%) 14 Days After Application TRZSS
[16] = ZEAMX: maize, corn (Zea mays), read-out: Visual Growth Reduction (%) 14 Days After Application ZEAMX
[17] = Amaranthus retroflexus, AMARE: redroot pigweed (Amaranthus retroflexus), read-out: Visual Growth Reduction (%) 14 Days After Application AMARE

| SMILES | pest or weed control at 70 g/ha [1, 3] [%] | pest or weed control at 140 g/ha [1, 3] [%] | pest or weed control at 70 g/ha [1, 4] [%] | pest or weed control at 140 g/ha [1, 4] [%] | pest or weed control at 70 g/ha [1, 5] [%] | pest or weed control at 140 g/ha [1, 5] [%] | pest or weed control at 70 g/ha [1, 6] [%] | pest or weed control at 140 g/ha [1, 6] [%] | pest or weed control at 70 g/ha [1, 7] [%] | pest or weed control at 140 g/ha [1, 7] [%] | pest or weed control at 70 g/ha [1, 8] [%] | pest or weed control at 140 g/ha [1, 8] [%] | melting point [°C] | pest or weed control at 70 g/ha [2, 9] [%] | pest or weed control at 140 g/ha [2, 9] [%] | pest or weed control at 70 g/ha [2, 10] [%] | pest or weed control at 140 g/ha [2, 10] [%] | pest or weed control at 70 g/ha [2, 11] [%] | pest or weed control at 140 g/ha [2, 11] [%] | pest or weed control at 70 g/ha [2, 12] [%] | other results |
| --- | --- | --- | --- | --- | --- | --- | --- | --- | --- | --- | --- | --- | --- | --- | --- | --- | --- | --- | --- | --- | --- |
| COC(=O)c1nc(-c2ccc(C(F)(F)F)nc2F)cc(N)c1Cl [Compound 74] | 85 to 94 | 95 to 100 | 30 to 44 | 45 to 59 | 75 to 84 | 85 to 94 | 0 to 29 | 0 to 29 | 45 to 59 | 60 to 74 | 0 to 29 | 0 to 29 | 138 to 141 | 0 to 29 | 0 to 29 | 0 to 29 | 0 to 29 | 0 to 29 | 45 to 59 | 0 to 29 | pest or weed control at 140 g/ha [2, 12]: 0 to 29%; pest or weed control at 70 g/ha [2, 13]: 0 to 29%; pest or weed control at 140 g/ha [2, 13]: 0 to 29%; pest or weed control at 70 g/ha [2, 14]: 0 to 29%; pest or weed control at 140 g/ha [2, 14]: 45 to 59%; pest or weed control at 70 g/ha [2, 15]: 0 to 29%; pest or weed control at 140 g/ha [2, 15]: 0 to 29%; pest or weed control at 70 g/ha [2, 16]: 0 to 29%; pest or weed control at 140 g/ha [2, 16]: 30 to 44% |
| COC(=O)c1nc(-c2ccc(C(F)(F)F)nc2C)c(F)c(N)c1Cl [Compound 35] | 0 to 29 | 0 to 29 | 0 to 29 | 0 to 29 | 0 to 29 | 0 to 29 | 0 to 29 | 0 to 29 | 0 to 29 | 0 to 29 | 0 to 29 | 0 to 29 | 160 | 0 to 29 | 0 to 29 | 0 to 29 | 0 to 29 | 0 to 29 | 0 to 29 | 0 to 29 | pest or weed control at 70 g/ha [1, 17]: 0 to 29%; pest or weed control at 140 g/ha [1, 17]: 0 to 29%; pest or weed control at 140 g/ha [2, 12]: 0 to 29%; pest or weed control at 70 g/ha [2, 13]: 0 to 29%; pest or weed control at 140 g/ha [2, 13]: 0 to 29%; pest or weed control at 70 g/ha [2, 14]: 0 to 29%; pest or weed control at 140 g/ha [2, 14]: 0 to 29%; pest or weed control at 70 g/ha [2, 15]: 0 to 29%; pest or weed control at 140 g/ha [2, 15]: 0 to 29%; pest or weed control at 70 g/ha [2, 16]: 0 to 29%; pest or weed control at 140 g/ha [2, 16]: 0 to 29% |
| Nc1c(Cl)c(C(=O)O)nc(-c2ccc(C(F)(F)F)nc2)c1Cl [Compound 33] | 0 to 29 | 0 to 29 | 0 to 29 | 30 to 44 | 85 to 94 | 85 to 94 | 75 to 84 | 75 to 84 | 85 to 94 | 95 to 100 | 0 to 29 | 0 to 29 | 155 to 158 | 95 to 100 | 95 to 100 | 45 to 59 | 60 to 74 | 60 to 74 | 60 to 74 | 0 to 29 | pest or weed control at 70 g/ha [1, 17]: 60 to 74%; pest or weed control at 140 g/ha [1, 17]: 95 to 100%; pest or weed control at 140 g/ha [2, 12]: 0 to 29%; pest or weed control at 70 g/ha [2, 13]: 75 to 84%; pest or weed control at 140 g/ha [2, 13]: 75 to 84%; pest or weed control at 70 g/ha [2, 14]: 75 to 84%; pest or weed control at 140 g/ha [2, 14]: 75 to 84%; pest or weed control at 70 g/ha [2, 15]: 30 to 44%; pest or weed control at 140 g/ha [2, 15]: 45 to 59%; pest or weed control at 70 g/ha [2, 16]: 60 to 74%; pest or weed control at 140 g/ha [2, 16]: 60 to 74% |
| Cc1c(-c2cc(N)c(Cl)c(C(=O)O)n2)ccc(F)c1F [Compound 87] | 95 to 100 | 95 to 100 | 85 to 94 | 85 to 94 | 95 to 100 | 95 to 100 | 0 to 29 | 0 to 29 | 85 to 94 | 95 to 100 | 0 to 29 | 0 to 29 | 163 to 165 | 0 to 29 | 0 to 29 | 0 to 29 | 0 to 29 | 0 to 29 | 0 to 29 | 0 to 29 | pest or weed control at 70 g/ha [1, 17]: 95 to 100%; pest or weed control at 140 g/ha [1, 17]: 95 to 100%; pest or weed control at 140 g/ha [2, 12]: 0 to 29%; pest or weed control at 70 g/ha [2, 13]: 0 to 29%; pest or weed control at 140 g/ha [2, 13]: 0 to 29%; pest or weed control at 70 g/ha [2, 14]: 0 to 29%; pest or weed control at 140 g/ha [2, 14]: 0 to 29%; pest or weed control at 70 g/ha [2, 15]: 0 to 29%; pest or weed control at 140 g/ha [2, 15]: 0 to 29%; pest or weed control at 70 g/ha [2, 16]: 0 to 29%; pest or weed control at 140 g/ha [2, 16]: 0 to 29% |
